Measured values published in patent publication US20030211078A1, “Pseudo-antibody constructs” (priority 2001, published 2003).

Key:
[1] = tested on: platelet aggregation (GPIIb/IIIa receptors on platelets); test: inhibition of platelet aggregation, in vitro activity (FIG. 1, FIG. 2); format: cell-based; conditions: for in vitro activity (inhibition of platelet aggregation) compared with unmodified 7E3 Fab′: FIG. 1, versus unmodified Fab; for binding activity / in vitro activity (inhibition of platelet aggregation) compared with unmodified antibody fragment ReoPro: FIG. 2; for in vitro activity (inhibition of platelet aggregation) compared with unmodified antibody fragment ReoPro: versus ReoPro
Excerpt: FIG. 1 depicts a comparison of the inhibition of platelet aggregation by two pseudo-antibodies (7E3 Fab′ (PEG3.4K-DSPE)2 and 7E3 Fab′ (PEG3.4K-PAL)2) and one unmodified antibody fragment (7E3 Fab).
FIG. 2 depicts a comparison of the inhibition of platelet aggregation by two pseudo-antibodies (7E3 Fab′ (PEG5K)2 and 7E3 Fab′ (PEG10K)2) and one unmodified antibody fragment (ReoPro®).
The organic moieties portions of these constructs may also be dimerized, such that n=2. For example, the antibody fragment 7E3 Fab′ was used to construct the pseudo-antibody 7E3 Fab′ (PEG3.4k-DSPE)2 and the pseudo-antibody 7E3 Fab′ (PEG3.4.k-PAL)2 and the in vitro activities were compared with unmodified 7E3 Fab′.
Additionally, 7E3 Fab′ was used to construct the pseudo-antibodies 7E3 Fab′ (PEG5k)2 and 7E3 Fab′ (PEG10k)2 and the in vitro activites were compared with the unmodified antibody fragment ReoPro®.

[2] = in vivo pharmacokinetic analysis, circulating half-life / clearance in mice (FIG. 3); conditions: equimolar doses
Description: FIG. 3 depicts a comparison of in vivo circulating half-life, in mice, of two pseudo-antibodies, 7E3 Fab′ (PEG3.4K-DSPE)2 and 7E3 Fab′ (PEG5K)2.
For in vivo pharmacokinetic analysis, c7E3 Fab′ (PEG3.4k-DSPE)2 and c7E3 Fab′ (PEG5k) were prepared, and given to mice in equimolar doses. The results are depicted in FIG. 3.

MMP 2 = molecular target: T1, MMP 2 (Homo sapiens, UniProt P08253); conditions: cited from earlier work
T1 sequence (P08253 110-660): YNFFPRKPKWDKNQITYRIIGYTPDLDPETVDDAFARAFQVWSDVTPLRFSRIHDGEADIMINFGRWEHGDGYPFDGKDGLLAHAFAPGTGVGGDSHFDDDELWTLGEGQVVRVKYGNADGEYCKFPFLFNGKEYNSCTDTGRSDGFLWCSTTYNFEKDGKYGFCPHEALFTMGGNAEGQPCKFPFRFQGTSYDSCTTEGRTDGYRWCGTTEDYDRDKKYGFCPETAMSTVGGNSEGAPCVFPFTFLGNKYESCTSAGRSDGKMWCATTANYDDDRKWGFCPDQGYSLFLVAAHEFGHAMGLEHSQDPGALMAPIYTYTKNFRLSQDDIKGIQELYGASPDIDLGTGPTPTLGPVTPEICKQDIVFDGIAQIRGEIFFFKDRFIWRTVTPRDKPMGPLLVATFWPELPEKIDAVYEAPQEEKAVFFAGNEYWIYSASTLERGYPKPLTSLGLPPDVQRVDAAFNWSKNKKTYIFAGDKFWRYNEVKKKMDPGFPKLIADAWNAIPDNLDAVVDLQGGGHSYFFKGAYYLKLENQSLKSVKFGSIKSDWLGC

MMP 9 = MMP 9 (Homo sapiens, UniProt P14780); conditions: cited from earlier work
MMP 3 = MMP 3 (Homo sapiens, UniProt P08254); conditions: cited from earlier work
adjuvant arthritic rat = conditions: bone mineral density, MRI, micro-CT, histology; cited from earlier work
[3] = cited from earlier work

MMP 3, sequence (P08254 100-477): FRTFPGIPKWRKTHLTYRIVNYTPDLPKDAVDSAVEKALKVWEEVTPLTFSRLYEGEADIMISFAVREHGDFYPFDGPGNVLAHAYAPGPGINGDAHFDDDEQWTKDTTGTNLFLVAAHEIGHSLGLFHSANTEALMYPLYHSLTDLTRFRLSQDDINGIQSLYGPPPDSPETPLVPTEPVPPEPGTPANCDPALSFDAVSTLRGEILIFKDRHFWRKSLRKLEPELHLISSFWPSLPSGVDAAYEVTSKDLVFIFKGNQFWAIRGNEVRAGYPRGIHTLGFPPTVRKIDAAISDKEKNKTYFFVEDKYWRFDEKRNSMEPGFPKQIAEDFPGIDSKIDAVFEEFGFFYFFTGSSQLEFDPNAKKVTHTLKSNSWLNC
MMP 9, sequence (P14780 94-707): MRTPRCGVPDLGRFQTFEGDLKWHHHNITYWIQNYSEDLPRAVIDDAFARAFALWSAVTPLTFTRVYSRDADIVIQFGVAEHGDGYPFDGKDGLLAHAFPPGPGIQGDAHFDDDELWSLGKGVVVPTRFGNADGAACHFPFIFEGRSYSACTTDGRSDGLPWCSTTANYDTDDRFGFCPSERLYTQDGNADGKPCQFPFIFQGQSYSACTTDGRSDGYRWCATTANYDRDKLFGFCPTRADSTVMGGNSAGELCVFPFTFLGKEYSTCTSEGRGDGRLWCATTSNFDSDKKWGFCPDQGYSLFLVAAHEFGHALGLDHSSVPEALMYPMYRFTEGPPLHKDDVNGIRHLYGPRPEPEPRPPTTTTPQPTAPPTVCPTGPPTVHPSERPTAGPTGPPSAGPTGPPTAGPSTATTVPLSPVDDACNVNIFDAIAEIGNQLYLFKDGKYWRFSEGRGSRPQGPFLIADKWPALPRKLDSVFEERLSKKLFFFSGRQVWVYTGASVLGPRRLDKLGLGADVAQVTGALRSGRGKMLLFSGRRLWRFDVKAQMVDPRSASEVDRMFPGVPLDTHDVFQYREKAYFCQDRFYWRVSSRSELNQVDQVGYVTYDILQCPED

Molecule: 7E3 Fab′ (PEG3.4k-DSPE)2: pseudo-antibody: 7E3 Fab′ fragment with two PEG3.4k chains each ending in diesteroylphosphatidyl-ethanolamine (DSPE)
- in vitro activity (inhibition of platelet aggregation) compared with unmodified 7E3 Fab′ [1]: similar
- rate of clearance [2]: slower rate of clearance

Molecule: 7E3 Fab′ (PEG5k)2: pseudo-antibody: 7E3 Fab′ fragment with two PEG5k chains
- binding activity [1]: binding activity was clearly retained
- in vitro activity (inhibition of platelet aggregation) compared with unmodified antibody fragment ReoPro [1]: somewhat lower in vitro activity than the unmodified antibody fragment

Molecule: 7E3 Fab′ (PEG10k)2: pseudo-antibody: 7E3 Fab′ fragment with two PEG10k chains
- binding activity [1]: binding activity was clearly retained
- in vitro activity (inhibition of platelet aggregation) compared with unmodified antibody fragment ReoPro [1]: somewhat lower in vitro activity than the unmodified antibody fragment

Molecule: O=C(C[C@H](CSc1ccccc1)C(=O)O)c1ccc(-c2ccc(Cl)cc2)cc1 [BAY12-9566]
- inhibitory activity against MMP 2 (MMP 2): nM inhibitory activity
- inhibitory activity against MMP 9 (MMP 9): nM inhibitory activity
- inhibitory activity against MMP 3 (MMP 3): nM inhibitory activity

Molecule: COc1nccc(-c2c(-c3ccc(F)cc3)ncn2C2CCNCC2)n1 [SB 242235]
- activity in the adjuvant arthritic rat (adjuvant arthritic rat): inhibits inflammation and has significant joint-protective effects

Molecule: CCCCS(=O)(=O)N[C@@H](Cc1ccc(OCCCCC2CCNCC2)cc1)C(=O)O [Tirofiban]
- in vivo circulatory half-life [3]: approximately two

Molecule: c7E3 Fab′ (PEG5k): pseudo-antibody of c7E3 Fab′ with PEG5k, given to mice; probably the same as 7E3 Fab′ (PEG5K)2 of FIG. 3
- rate of clearance [2]: cleared faster

B1: 7E3 Fab′ (PEG3.4.k-PAL)2: pseudo-antibody: 7E3 Fab′ fragment with two PEG3.4k chains each ending in palmatoyl (PAL) (conjugate, chains of the INN, looked up)
VH: EVQLQQSGTVLARPGASVKMSCEASGYTFTNYWMHWVKQRPGQGLEWIGAIYPGNSDTSYIQKFKGKAKLTAVTSTTSVYMELSSLTNEDSAVYYCTLYDGYYVFAYWGQGTLVTVSA
VL: EIVLTQSPVTLSVTPGDSVSLSCRASRDISNNLHWFQQTSHESPRLLIKYASQSMSGIPSRFSGSGSGTDFTLSINSVETEDFGMYFCQQTNSWPYTFGGGTKLEIK
modifications: Fab' two PEG3.4k-palmitoyl chains
- in vitro activity (inhibition of platelet aggregation) compared with unmodified 7E3 Fab′ [1]: similar
